Molecular target: T1, K103NNY181C mutant reverse transcriptase (Human immunodeficiency virus type 1 group M subtype B, UniProt P04585, K690N/Y768C)
T1 construct: mutations that occur in the reverse transcriptase segment of the pol gene
Test: Reverse transcriptase enzymatic assay (PicoGreen), K103N/Y181C mutant RT
Type: biochemical, HIV-1
Settings: IC50 mut (nM), mutant (K103N/Y181C) reverse transcriptase, enzymatic assay of Example 24
Protocol: The enzymatic assay employed is described as follows: The reverse transcriptase (RT) enzyme assay has been adapted to a 96-well microtiter plate format and uses PicoGreen™ as a fluorescent intercalator. More explicitly, the HIV-1 RT enzyme was thawed and appropriately diluted into Tris/HCl 50 mM pH 7.8 containing NaCl 60 mM, MgCl2.6H2O 2 mM, DTT 6 mM, GSH 2 mM and 0.02% w/v Chaps to give ≈10 nM enzyme. To 10 μL of this enzyme solution was added 10 μL of inhibitor solution (40 μM to 2.032 nM inhibitor in the same assay buffer as above containing 4% v/v DMSO). The plate was pre-incubated for 15 minutes at room temperature before proceeding to the next step. In this pre-incubation step, the highest and lowest inhibitor concentrations were 20 μM and 1.016 nM respectively and the concentration of DMSO was 2% v/v. Then the enzymatic reaction was initiated by addition of 20 μL of substrate solution. The final reaction mixture contained Tris/HCl 50 mM pH 7.8, NaCl 60 mM, MgCl2.6H2O 2 mM, DTT 6 mM, GSH 2 mM, CHAPS 0.02% w/v, DMSO 1% v/v, poly rC 45 nM, dG15 4.5 nM, dGTP 3.6 μM, and 2.5 nM enzyme. In this incubation step, the highest and lowest inhibitor concentrations were 10 μM and 0.508 nM respectively. After addition of the substrate cocktail, the plate was covered with a plastic seal and incubated for 50 minutes at 37° C. in a dry incubator. The reaction was then quenched by addition of 5 μL of EDTA 0.5 M. The plate was shaken for 30 seconds at medium speed and incubated for 5 minutes at room temperature. Then 160 μL of PicoGreen™ 1:400 dilution from commercial stock (diluted in Tris 20 mM pH 7.5 with EDTA 1 mM) was added and the plate was shaken for 30 seconds and incubated for 10 minutes at room temperature. The plate was then analyzed using a POLARstar Galaxy fluorometer (BMG Labtechnologies) with λex and λem of 485 nm and 520 nm respectively. Each well was read for 1.25 second. Each row contained at its extremities a blank and a control well.

Row | SMILES | IC50 [nM]
1 | CC(C)C(=O)Nc1ccc(NC(=O)CSc2nnnn2-c2ccc(C(C)(C)C)cc2Cl)c(Cl)c1 [Compound 7010] | 83
2 | COc1ccc(CC(=O)Nc2ccc(NC(=O)CSc3nnnn3-c3ccc(C(C)(C)C)cc3Cl)c(Cl)c2)cc1 [Compound 7015] | 189
3 | CC(C)(C)c1ccc(-n2nnnc2SCC(=O)Nc2ccc(NC(=O)c3ccccc3Cl)cc2Cl)c(Cl)c1 [Compound 7013] | 121
4 | CC(C)(C)c1ccc(-n2nnnc2SCC(=O)Nc2ccc(NC(=O)CC3CCCC3)cc2Cl)c(Cl)c1 [Compound 7023] | 255
5 | CC(C)(C)c1ccc(-n2nnnc2SCC(=O)Nc2ccc(NC(=O)C(C)(C)c3ccccc3)cc2Cl)c(Cl)c1 [Compound 7041] | 337
6 | CC(C)(C)c1ccc(-n2nnnc2SCC(=O)Nc2ccc(NC(=O)Cc3cccc[n+]3[O-])cc2Cl)c(Cl)c1 [Compound 7047] | 43.5
7 | CC(C)(C)c1ccc(-n2nnnc2SCC(=O)Nc2ccc(NC(=O)c3cccc(O)c3)cc2Cl)c(Cl)c1 [Compound 7012] | 128
8 | COc1cccc(CC(=O)Nc2ccc(NC(=O)CSc3nnnn3-c3ccc(C(C)(C)C)cc3Cl)c(Cl)c2)c1 [Compound 7016] | 145
9 | CC(C)(C)c1ccc(-n2nnnc2SCC(=O)Nc2ccc(NC(=O)C3CCCCC3)cc2Cl)c(Cl)c1 [Compound 7022] | 629
10 | CC(C(=O)Nc1ccc(NC(=O)CSc2nnnn2-c2ccc(C(C)(C)C)cc2Cl)c(Cl)c1)c1ccccc1 (centres unmarked) [Compound 7044] | 335
11 | CC(C)(C)c1ccc(-n2nnnc2SCC(=O)Nc2ccc(NC(=O)C3CCCC3)cc2Cl)c(Cl)c1 [Compound 7021] | 262

Same assay, conditions: IC50 mut, K103N/Y181C mutant reverse transcriptase, enzymatic assay of Example 24

Row | SMILES | IC50 [nM]
12 | CN(C)CCCC(=O)NC(C)(C)C#Cc1ccc(NC(=O)CSc2nnnn2-c2cc(C(F)(F)F)ccc2Cl)c(Cl)c1 [Compound 4147] | 52
13 | CC(=O)NC(C)(C)C#Cc1ccc(NC(=O)CSc2nnnn2-c2ccc(C3CC3)cc2Cl)c(Cl)c1 [Compound 4080] | 8.45
14 | CC(C)(N)C#Cc1ccc(NC(=O)CSc2nnnn2-c2cc(C(F)(F)F)ccc2Cl)c(Cl)c1F [Compound 4163] | 83
15 | CC(C)(N)C#Cc1ccc(NC(=O)CSc2nnnn2-c2cc(Br)ccc2Cl)c(Cl)c1 [Compound 4220] | 97.5
16 | O=C(CSc1nnnn1-c1ccc(C2CC2)cc1Cl)Nc1ccc(C#CC2(CN3CCCC3)CC2)cc1Cl [Compound 4092] | 61.5
17 | CC(C)(C#Cc1ccc(NC(=O)CSc2nnnn2-c2cc(C(C)(C)C)cc(Br)c2Cl)c(Cl)c1)NC(=O)CNc1cc[n+]([O-])cc1 [Compound 4225] | 162
18 | CC(C)(N)C#Cc1ccc(NC(=O)CSc2nnnn2-c2cc(C(F)(F)F)cc(C3CC3)c2Cl)c(Cl)c1F [Compound 4237] | 91.5
19 | CC(C)(C#Cc1ccc(NC(=O)CSc2nnnn2-c2ccc(C3CC3)cc2Cl)c(Cl)c1F)C(=O)O [Compound 4100] | 18
20 | Cc1cc(C)c(-n2nnnc2SCC(=O)Nc2ccc(C#CC(C)(C)O)cc2Cl)c(Cl)c1 [Compound 4007] | 38
21 | CC(C)(O)C#Cc1ccc(NC(=O)CSc2nnnn2-c2ccc(C3CC3)cc2Cl)c(Br)c1 [Compound 4078] | 13.5
22 | CC(C)(C#Cc1ccc(NC(=O)CSc2nnnn2-c2ccc(C(C)(C)C)cc2Cl)c(Cl)c1)OCC(=O)Nc1ccon1 [Compound 4054] | 35
23 | CCN(CC)CC#Cc1ccc(NC(=O)CSc2nnnn2-c2ccc(C(C)(C)C)cc2Cl)c(Cl)c1 [Compound 4008] | 94
24 | CC(C)(C#Cc1ccc(NC(=O)CSc2nnnn2-c2cc(C3CC3)cc(C(F)(F)F)c2Cl)c(Cl)c1F)NC(=O)c1ccc[n+]([O-])c1 [Compound 4248] | 30.5
25 | CC(C)(C)c1ccc(-n2nnnc2SCC(=O)Nc2ccc(C#CCO)cc2Cl)c(Cl)c1 [Compound 4006] | 11
26 | CC(C)(C#Cc1ccc(NC(=O)CSc2nnnn2-c2ccc(C(C)(C)C)cc2Cl)c(Cl)c1)COC(N)=O [Compound 4042] | 37
27 | CC(C)(C#Cc1ccc(NC(=O)CSc2nnnn2-c2ccc(C3CC3)cc2Cl)c(Cl)c1)C(=O)NCCCN1CCCC1=O [Compound 4152] | 36.5
28 | CC(C)(C#Cc1ccc(NC(=O)CSc2nnnn2-c2ccc(C3CC3)cc2Cl)c(Cl)c1)C(=O)NC(C)(C)C(=O)O [Compound 4144] | 81
29 | CC(C)(C#Cc1ccc(NC(=O)CSc2nnnn2-c2cc(C(C)(C)C)ccc2Cl)c(Cl)c1)NC(=O)c1cc[n+]([O-])cc1 [Compound 4205] | 28.5
30 | Cc1cc(Cl)c(-n2nnnc2SCC(=O)Nc2ccc(C#CC(C)(C)O)cc2Cl)cc1C(F)(F)F [Compound 4060] | 42
31 | CC(C)(C#Cc1ccc(NC(=O)CSc2nnnn2-c2ccc(C3CC3)cc2Cl)c(Cl)c1)OCCN1CCC1 [Compound 4119] | 121
32 | CC(C)(C#Cc1ccc(NC(=O)CSc2nnnn2-c2ccc(C3CC3)cc2Cl)c(Cl)c1)NC(=O)C1(C(=O)O)CC1 [Compound 4233] | 9.35
33 | CC(C)(N)C#Cc1ccc(NC(=O)CSc2nnnn2-c2cc(C(C)(C)C)cc(Br)c2Cl)c(Cl)c1 [Compound 4221] | 108
34 | CC(C)(C#Cc1ccc(NC(=O)CSc2nnnn2-c2cc(C(F)(F)F)ccc2Cl)c(Cl)c1)OCCOc1ccncc1 [Compound 4168] | 108
35 | CNC(=O)NC(C)(C)C#Cc1ccc(NC(=O)CSc2nnnn2-c2ccc(C3CC3)cc2Cl)c(Cl)c1 [Compound 4071] | 8.75
36 | CN(C)CCCC(=O)NC(C)(C)C#Cc1ccc(NC(=O)CSc2nnnn2-c2ccc(C3CC3)cc2Cl)c(Cl)c1 [Compound 4108] | 27
37 | CC(C)(C#Cc1ccc(NC(=O)CSc2nnnn2-c2ccc(CC3CC3)cc2Cl)c(Cl)c1)NC(=O)c1cc[n+]([O-])cc1 [Compound 4247] | 19

Same assay, conditions: IC50 mut, mutant reverse transcriptase, enzymatic assay of Example 24

Row | SMILES | IC50 [nM]
38 | O=C(CSc1nnnn1-c1ccc(C2CC2)cc1Cl)Nc1ccc(C(=O)NCc2cc[n+]([O-])cc2)cc1Cl [Compound 6034] | 44.5
39 | Cc1ccc(-n2nnnc2SCC(=O)Nc2ccc(-c3c[nH]cn3)cc2Cl)c(Cl)c1 [Compound 3018] | 269
40 | Cc1ccc(-c2cn[nH]c2OCC(=O)Nc2ccc(-c3ccc(CC(=O)O)cc3)cc2Cl)c(Cl)c1 [Compound 1010] | 156
41 | Cc1ccc(-n2nnnc2SCC(=O)Nc2ccc(-c3cccc(C(=O)O)c3)cc2Cl)c(Cl)c1 [Compound 3003] | 241
42 | Cc1ccc(-n2nnnc2SCC(=O)Nc2ccc(/C=C/C(=O)O)cc2Cl)c(Cl)c1 [Compound 3006] | 265
43 | CC(C)(C#Cc1ccc(NC(=O)CSc2nnc(C(F)(F)F)n2-c2ccc(C3CC3)cc2Cl)c(Cl)c1)NC(=O)c1cc[n+]([O-])cc1 [Compound 1018] | 51
44 | O=C(O)Cc1ccc(-c2ccc(NC(=O)CSc3nnnn3-c3ccc(OC(F)(F)F)cc3Cl)c(Cl)c2)cc1 [Compound 2034] | 178
45 | Cc1cc(C)c(-n2nnnc2SCC(=O)Nc2ccc(-c3ccc(C(C)(C)C(=O)O)cc3)cc2Cl)c(Cl)c1 [Compound 2025] | 42
46 | O=C(CSc1nnnn1-c1ccc(C2CC2)cc1Cl)Nc1ccc(-c2ccc(OCCN3CCCCC3)c(Cl)c2)cc1Cl [Compound 3038] | 167
47 | Cc1ccc(-n2nnnc2SCC(=O)Nc2ccc(-c3cscn3)cc2Cl)c(Cl)c1 [Compound 3014] | 142
48 | O=C(COc1ccc(NC(=O)CSc2nnnn2-c2ccc(C3CC3)cc2Cl)c(Cl)c1)NCCc1ccccn1 [Compound 5034] | 357
49 | CC(C)(C)c1ccc(-n2nnnc2SCC(=O)Nc2ccc(OCC(=O)Nc3ccc(CC(=O)O)cc3)cc2Cl)c(Cl)c1 [Compound 5023] | 38
50 | CN(C)S(=O)(=O)c1ccc(NC(=O)CSc2nnnn2-c2ccc(C(C)(C)C)cc2Cl)c(Cl)c1 [Compound 3025] | 217
51 | CC(C)(C)c1ccc(-n2nnnc2SCC(=O)Nc2ccc(C(=O)NCc3ccco3)cc2Cl)c(Cl)c1 [Compound 6003] | 13
52 | CC(C)(NC(=O)c1ccc(NC(=O)CSc2nnnn2-c2ccc(C3CC3)cc2Cl)c(Cl)c1)C(=O)O [Compound 6033] | 298
53 | CC(C)(C)c1ccc(-n2nnnc2SCC(=O)Nc2ccc(OCC(=O)NCc3ccc(C(=O)O)cc3)cc2Cl)c(Cl)c1 [Compound 5027] | 51
54 | CC(C)(C)c1ccc(-n2nnnc2SCC(=O)Nc2ccc(C(=O)NN3CCOCC3)cc2Cl)c(Cl)c1 [Compound 6007] | 30
55 | CC(C)(C)c1ccc(-n2nnnc2SCC(=O)Nc2ccc(-c3ccc(OCCN4CCOCC4)cc3)cc2Cl)c(Cl)c1 [Compound 2022] | 42
56 | CC(C)(C)c1ccc(-n2nnnc2SCC(=O)Nc2ccc(-c3ccc(OCCN4CCC(C(=O)O)CC4)cc3)cc2Cl)c(Cl)c1 [Compound 2040] | 36
